Data on 2 compounds can be found in ChEMBL document CHEMBL1126725, “Enantioselectivity of cocaine recognition sites: binding of (1S)- and (1R)-2 beta-carbomethoxy-3 beta-(4-iodophenyl)tropane (beta-CIT) to monoamine transporters” (J Med Chem, 1993).

Experiment [1] can be described thus: Tested for its ability to displace [125I]- (1R)-beta-CIT with rat cortical membranes.
Experiment [2] deals with Sodium-dependent serotonin transporter (Homo sapiens, UniProt P31645). The experiment can be described thus: Compounds binding ability to serotonin transporter was evaluated by displacing [3H]paroxetine in baboon brain. The arrangement: species or system Papio hamadryas.
Chain of Sodium-dependent serotonin transporter (P31645 whole entry): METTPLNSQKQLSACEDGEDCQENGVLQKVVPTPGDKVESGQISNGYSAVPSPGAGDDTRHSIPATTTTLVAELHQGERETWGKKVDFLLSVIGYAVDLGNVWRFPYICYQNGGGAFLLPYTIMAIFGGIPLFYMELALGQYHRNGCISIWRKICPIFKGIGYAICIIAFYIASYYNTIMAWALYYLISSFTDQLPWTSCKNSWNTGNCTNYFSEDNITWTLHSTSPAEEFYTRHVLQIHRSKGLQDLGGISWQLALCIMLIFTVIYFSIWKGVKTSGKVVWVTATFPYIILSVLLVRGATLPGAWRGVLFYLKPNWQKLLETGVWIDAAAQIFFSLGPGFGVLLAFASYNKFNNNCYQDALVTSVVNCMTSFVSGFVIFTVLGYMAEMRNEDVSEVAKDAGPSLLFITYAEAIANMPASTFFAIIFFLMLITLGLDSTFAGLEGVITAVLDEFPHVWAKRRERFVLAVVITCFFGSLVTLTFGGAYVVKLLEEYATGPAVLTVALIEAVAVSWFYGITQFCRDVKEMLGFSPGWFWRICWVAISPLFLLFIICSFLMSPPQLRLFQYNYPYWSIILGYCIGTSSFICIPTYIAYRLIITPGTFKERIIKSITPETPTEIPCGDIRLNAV
For the next experiment, the species on record is Rattus norvegicus. The experiment can be described thus: (§1) Tested for its ability to displace [125I]- (1R)-beta-CIT with rat striatal membranes. The arrangement: species or system Membrane. The settings on record: Striatum.
Experiment [3] in a line: as §1. The arrangement: species or system Striatum, Membrane.

The IC50 is the point on the concentration scale where inhibition reaches its midpoint. As for `COC(=O)C1C2CC[C@H](C[C@@H]1c1ccc(I)cc1)N2C` (stereo not given in full), the IC50 was 0.55 nM in experiment [1], 3.8 nM in experiment [2] and 0.42 nM in the experiment filed under Rattus norvegicus.
Regarding `COC(=O)[C@@H]1C2CC[C@H](C[C@@H]1c1ccc(I)cc1)N2C`, the half-maximal inhibitory concentration (IC50) in experiment [1] stood at 450 nM; in experiment [3], 5700 nM.
